Experimental data published in patent US20230044787A1, “TRICYCLE DIHYDROIMIDAZOPYRIMIDONE DERIVATIVE, PREPARATION METHOD THEREOF, PHARMACEUTICAL COMPOSITION AND USE THEREOF” (priority 2019, published 2023).

Each compound was assayed against T1, Lp-PLA2 (Homo sapiens, UniProt Q13093) (assay: Lipoprotein-associated phospholipase A2 (Lp-PLA2) human plasma assay (Thio-PAF assay)). Conditions: Lp-PLA2 human plasma assay (Thio-PAF), pooled human plasma, 30-min pre-incubation at room temperature.
T1 construct: aliquoted and thawed 40 μL of pooled human plasma was previously added; from tissue; host or cells: pooled human plasma
T1 sequence (Q13093 22-441): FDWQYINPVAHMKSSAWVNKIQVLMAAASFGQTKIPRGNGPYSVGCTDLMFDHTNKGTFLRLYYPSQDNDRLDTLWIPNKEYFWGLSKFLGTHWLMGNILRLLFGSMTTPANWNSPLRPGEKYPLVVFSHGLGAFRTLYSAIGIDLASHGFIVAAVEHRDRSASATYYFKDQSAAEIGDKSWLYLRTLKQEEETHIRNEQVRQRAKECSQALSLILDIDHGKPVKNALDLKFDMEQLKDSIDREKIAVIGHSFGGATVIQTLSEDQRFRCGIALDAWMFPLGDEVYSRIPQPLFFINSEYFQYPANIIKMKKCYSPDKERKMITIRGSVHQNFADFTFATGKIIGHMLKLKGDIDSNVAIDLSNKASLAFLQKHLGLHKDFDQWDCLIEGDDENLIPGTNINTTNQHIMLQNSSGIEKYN
Type: biochemical
Experimental: Lipoprotein-Associated Phospholipase A2 (Lp-PLA2) Human Plasma Assay
The amount of sulfhydryl groups is continuously determined by the reaction with CPM (7-diethylamino-3-(4′-maleimidophenyl)-4-methylcoumarin), and the CPM is a maleimide of which fluorescence increases after Michael addition of sulfhydryl group. This assay can detect Lp-PLA2 activity in human plasma, as determined by specific inhibition of Lp-PLA2 inhibitors.
Thio-PAF assay was performed as quenched 75 μL assay. Compound source plate was prepared for each compound by preparing 1:3 (by volume) serial dilutions in pure DMSO in a 96-well microplate. The compound on the source plate was diluted 20-fold by transferring 3 μL of the compound from the compound source plate into a 96-well microplate pre-added with 57 μL of assay buffer by Rainin multichannel pipette. The assay buffer described above consisted of 50 mM HEPES, pH 7.4, 150 mM NaCl, 1 mM CHAPS. 1 μL of the 20-fold diluted compound was transferred by Rainin multichannel pipette into a 96-well Greiner 655076 (black) microplate to which aliquoted and thawed 40 μL of pooled human plasma was previously added. The plate was shaken for 20 seconds on a microplate shaker to mix well. After a 30-min pre-incubation at room temperature, 10 μL of substrate solution was added to the 96-well Greiner 655076 (black) microplate by Rainin multichannel pipette, in which the substrate solution contained 2.5 mM 2-thio-PAF [from ethanol stock], 32 μM CPM [from DMSO stock], and 3.2 mM NEM (N-ethylmaleimide) [freshly prepared in DMSO per experiment] in assay buffer consisting of 50 mM HEPES, pH 7.4; 150 mM NaCl; 1 mM CHAPS. After 2 min, the reaction was quenched with […] of 5% trifluoroacetic acid (TFA) in water. The plate was centrifuged at 2000 rpm for 1 minute. The plate was read at ex:380/em:485 using a Biotek Synergy H1 (H1MF) microplate reader. IC50 data, curves and QC analysis were performed using GraphPad Prism 6.0 and Excel.

Row | SMILES | IC50
1 | N#Cc1cc(COc2cc3n(c(=O)n2)C[C@@]24CO[C@@H](CN32)C4)ccc1Oc1cccc(C(F)(F)F)c1 [Example 33] | 6 nM
2 | O=c1nc(OCc2cc(F)c(Oc3ccnc(C(F)(F)F)c3)c(F)c2)cc2n1CC13CC(CN21)C3 [Example 36, 3-((3,5-difluoro-4-((2-(trifluoromethyl)pyridin-4-yl)oxy)benzyl)oxy)-7,8-dihydro-1H,6H,9H-7,8a-methanopyrrolo[1′,2′:3,4] imidazo[1,2-c]pyrimidin-1-one] | 9.6 nM
3 | O=c1nc(OCc2cc(F)c(Oc3ccnc(OC(F)(F)F)c3)c(F)c2)cc2n1CC13CC(CN21)C3 [Example 37, 3-((3,5-difluoro-4-((2-(trifluoromethoxy)pyridin-4-yl)oxy)benzyl)oxy)-7,8-dihydro-1H,6H,9H-7,8a-methanopyrrolo[1′,2′:3,4] imidazo[1,2-c]pyrimidin-1-one] | 5.8 nM
4 | O=c1nc(OCc2cc(F)c(Oc3ccnc(Cl)c3)c(F)c2)cc2n1CC13CC(CN21)C3 [Example 38, 3-((4-((2-chloropyridin-4-yl)oxy)-3,5-difluorobenzyl)oxy)-7,8-dihydro-1H,6H,9H-7,8a-methanopyrrolo[1′,2′:3,4] imidazo[1,2-c]pyrimidin-1-one] | 8.5 nM
5 | O=c1nc(OCc2cc(F)c(Oc3cnc(C(F)(F)F)nc3)c(F)c2)cc2n1CC13CC(CN21)C3 [Example 39, 3-((3,5-difluoro-4-((2-(trifluoromethyl)pyrimidin-5-yl)oxy)benzyl)oxy)-7,8-dihydro-1H,6H,9H-7,8a-methanopyrrolo[1′,2′:3,4] imidazo[1,2-c]pyrimidin-1-one] | 13.8 nM
6 | O=c1nc(OCc2cc(F)c(Oc3cncc(C(F)(F)F)c3)c(F)c2)cc2n1CC13CC(CN21)C3 [Example 40] | 6.4 nM
7 | N#Cc1cc(COc2cc3n(c(=O)n2)CC24CC(CN32)C4)ccc1Oc1ccc(Cl)c(C(F)(F)F)c1 [Example 41] | 3.9 nM
8 | N#Cc1cc(COc2cc3n(c(=O)n2)CC24CC(CN32)C4)ccc1Oc1cccc(C(F)(F)F)c1 [Example 42] | 4.9 nM
9 | N#Cc1cc(COc2cc3n(c(=O)n2)CC24CC(CN32)C4)ccc1Oc1ccnc(C(F)(F)F)c1 [Example 43] | 4 nM
10 | O=c1nc(OCc2ccccc2F)cc2n1CC13CC(CN21)C3 [Example 44, 3-((2-fluorobenzyl)oxy)-7,8-dihydro-1H,6H,9H-7,8a-methanopyrrolo[1′,2′:3,4] imidazo[1,2-c]pyrimidin-1-one] | 342 nM
11 | O=c1nc(OCc2cc(F)c(Oc3ccnc(C(F)(F)F)c3)c(F)c2)cc2n1CC13CCC(CC1)N23 [Example 46, 3-((3,5-difluoro-4-((2-(trifluoromethyl)pyridin-4-yl)oxy)benzyl)oxy)-7,8-dihydro-1H,6H,9H-6,8a-ethanopyrrolo[1′,2′:3,4] imidazo[1,2-c]pyrimidin-1-one] | 15.3 nM
12 | O=c1nc(OCc2cc(F)c(Oc3cnc(C(F)(F)F)nc3)c(F)c2)cc2n1CC13CCC(CC1)N23 [Example 47, 3-((3,5-difluoro-4-((2-(trifluoromethyl)pyrimidin-5-yl)oxy)benzyl)oxy)-7,8-dihydro-1H,6H,9H-6,8a-ethanopyrrolo[1′,2′:3,4] imidazo[1,2-c]pyrimidin-1-one] | 9.4 nM
13 | Cn1cc(Oc2c(F)cc(COc3cc4n(c(=O)n3)CC35CCC(CC3)N45)cc2F)cn1 [Example 48, 3-((3,5-difluoro-4-((1-methyl-1H-pyrazol-4-yl)oxy)benzyl)oxy)-7,8-dihydro-1H,6H,9H-6,8a-ethanopyrrolo[1′,2′:3,4] imidazo[1,2-c]pyrimidin-1-one] | 62.8 nM

The next lines start with the values.

Row | IC50 | SMILES
14 | 10.4 nM | O=c1nc(OCc2ccc(F)c(F)c2)cc2n1C[C@]13CO[C@H](CN21)C3 [Example 25, (3S,11aR)-7-((3,4-trifluorobenzyl)oxy)-3,4-dihydro-1H,9H,11H-3,11a-methanopyrimido[6′,1′:2,3] imidazo[5,1-c][1,4]oxazin-9-one]
15 | 5.5 nM | O=c1nc(OCc2cc(F)c(Oc3ccnc(C(F)(F)F)c3)c(F)c2)cc2n1C[C@@]13CO[C@@H](CN21)C3 [Example 26, (3R,11aS)-7-((3,5-difluoro-4-((2-(trifluoromethyl)pyridin-4-yl)oxy)benzyl)oxy)-3,4-dihydro-1H,9H,11H-3,11a-methanopyrimido[6′,1′:2,3] imidazo[5,1-c][1,4]oxazin-9-one]
16 | 2.5 nM | O=c1nc(OCc2cc(F)c(Oc3ccc(Cl)c(C(F)(F)F)c3)c(F)c2)cc2n1C[C@@]13CO[C@@H](CN21)C3 [Example 27, (3R,11aS)-7-((4-(4-chloro-3-(trifluoromethyl)phenoxy)-3,5-difluorobenzyl)oxy)-3,4-dihydro-1H,9H,11H-3,11a-methanopyrimido[6′,1′:2,3] imidazo[5,1-c][1,4]oxazin-9-one]
17 | 7.3 nM | O=c1nc(OCc2cc(F)c(Oc3ccnc(Cl)c3)c(F)c2)cc2n1C[C@@]13CO[C@@H](CN21)C3 [Example 28, (3R,11aS)-7-((4-((2-chloropyridin-4-yl)oxy)-3,5-difluorobenzyl)oxy)-3,4-dihydro-1H,9H,11H-3,11a-methanopyrimido[6′,1′:2,3] imidazo[5,1-c][1,4]oxazin-9-one]
18 | 3.4 nM | O=c1nc(OCc2cc(F)c(Oc3cncc(C(F)(F)F)c3)c(F)c2)cc2n1C[C@@]13CO[C@@H](CN21)C3 [Example 29, (3R,11aS)-7-((3,5-difluoro-4-((5-(trifluoromethyl)pyridin-3-yl)oxy)benzyl)oxy)-3,4-dihydro-1H,9H,11H-3,11a-methanopyrimido[6′,1′:2,3] imidazo[5,1-c][1,4]oxazin-9-one]
19 | 6.8 nM | O=c1nc(OCc2cc(F)c(Oc3ccc(C(F)(F)F)nc3)c(F)c2)cc2n1C[C@@]13CO[C@@H](CN21)C3 [Example 30, (3R,11aS)-7-((3,5-difluoro-4-((6-(trifluoromethyl)pyridin-3-yl)oxy)benzyl)oxy)-3,4-dihydro-1H,9H,11H-3,11a-methanopyrimido[6′,1′:2,3] imidazo[5,1-c][1,4]oxazin-9-one]
20 | 7.1 nM | N#Cc1cc(Oc2ccc(COc3cc4n(c(=O)n3)C[C@@]35CO[C@@H](CN43)C5)cc2F)cc(C(F)(F)F)c1 [Example 31]
21 | 164 nM | O=c1nc(OCc2ccc(Oc3ccc(F)c(C(F)(F)F)c3)nc2)cc2n1C[C@@]13CO[C@@H](CN21)C3 [Example 32, (3R,11aS)-7-((6-(4-fluoro-3-(trifluoromethyl)phenoxy)pyridin-3-yl)methoxy)-3,4-dihydro-1H,9H,11H-3,11a-methanopyrimido[6′,1′:2,3] imidazo[5,1-c][1,4]oxazin-9-one]
22 | 3.6 nM | N#Cc1cc(COc2cc3n(c(=O)n2)C[C@@]24CO[C@@H](CN32)C4)ccc1Oc1ccc(C(F)(F)F)cc1 [Example 34, 5-((((3R,11aS)-9-oxo-3,4-dihydro-1H,9H,11H-3,11a-methanopyrimido[6′,1′:2,3]imidazo[5,1-c][1,4]oxazin-7-yl)oxy)methyl)-2-(4-(trifluoromethyl)phenoxy) benzonitrile]
23 | 38.8 nM | O=c1nc(OCc2cc(F)c(F)c(F)c2)cc2n1C[C@@]13CO[C@@H](CN21)C3 [Example 35, (3R,11aS)-7-((3,4,5-trifluorobenzyl)oxy)-3,4-dihydro-1H,9H,11H-3,11a-methanopyrimido[6′,1′:2,3] imidazo[5,1-c][1,4]oxazin-9-one]
24 | 71.8 nM | O=c1nc(OCc2cccc(F)c2F)cc2n1CC13CC(CN21)C3 [Example 45, 3-((2,3-difluorobenzyl)oxy)-7,8-dihydro-1H,6H,9H-7,8a-methanopyrrolo[1′,2′:3,4] imidazo[1,2-c]pyrimidin-1-one]
